Tests used:
BET BD2 = details: public sources, not a head-to-head trial, cited from earlier work
[1] = tested on: goblet cells in gastrointestinal villi; details: at 28 days; Faivre et al.; not head-to-head; cited from earlier work
[2] = SLE (lupus) model: body weight; type: in vivo, MRL/MpJ-Faslpr mice; details: for Mean Body Weight: Cyclophosphamide 50 mg/kg IP once a week
Description: (§1) Female MRL/MpJ-Faslpr mice (The Jackson Laboratory) were used to assess the efficacy of Compound A in treating lupus. Starting when animals were 10 weeks of age, protein concentration in urine was measured using urine dipsticks.
(§2) At the start of the study, each group in the study had two animals that were 9 weeks old, and all others were 10 weeks old. Dosing of all animals with the test compounds began when the older animals were 11 weeks old. […] […] Dosing was at a consistent time each dosing day throughout the study.
(§3) Compound A may be formulated as illustrated in Experimental Method A (see Table 2E.). […] A stock solution of Compound A in DMSO (stock solution concentration of Compound A of 40 mg/mL) was prepared and aliquots for weekly preparations were frozen at −20° C. On each preparation day, a stock solution aliquot was thawed and diluted with other vehicle components to the desired concentration. Formulated Compound A and vehicle were at room temperature for dosing.
(§4) The study began when the older animals were 11 weeks old, and concluded when the older animals were 19 weeks old. Body weight was recorded once a week, with the exception of two weight measurements taken the first week of the study (when the older animals were 11 weeks old). Proteinuria was measured in the urine of animals with urine dipsticks once a week, starting when the older animals were 10 weeks old. […] Blood samples were taken retro-orbitally at the start of the study to establish a baseline (15 animals, 3 per group), and when the older animals were 16 weeks (all animals) and when animals were 19 weeks (all animals) at the conclusion of the study. Blood urea nitrogen (BUN) was measured in all animals at study termination in blood samples. After blood collection, animals were euthanized, perfused with PBS, and the left kidneys were collected and weighed and fixed in 10% buffered formalin. Left kidneys were then processed to a formalin-fixed, paraffin-embedded (FFPE) block, and histology was analyzed in Periodic Acid-Schiff-stained sections (1 section per slide), using the criteria described in Alperovich et al., Lupus, 16:18-24 (2007). Right kidneys were weighed and snap-frozen at −80° C. Spleens were also collected and weighed. SLE in animals treated with a BET inhibitor and vehicle.

lupus [3] = assay: SLE (lupus) model: proteinuria scores; type: in vivo, MRL/MpJ-Faslpr mice; details: Cyclophosphamide 50 mg/kg IP once a week
Description: as §1, §2, §3, §4

lupus [4] = assay: SLE (lupus) model: kidney histology lesion scores; type: in vivo, MRL/MpJ-Faslpr mice; details: Week 19
Description: as §1, §2, §3, §4

lupus [5] = assay: SLE (lupus) model: kidney and spleen weight; type: in vivo, MRL/MpJ-Faslpr mice; details: Week 19
Description: as §1, §2, §3, §4

lupus [6] = assay: SLE (lupus) model: blood urea nitrogen (BUN) in serum; type: in vivo, MRL/MpJ-Faslpr mice; details: Cyclophosphamide 50 mg/kg IP once a week; Week 19
Description: as §1
At the start of the study, each group in the study had two animals that were 9 weeks old, and all others were 10 weeks old. Dosing of all animals with the test compounds began when the older animals were 11 weeks old. Starting on Day 1, in Groups 1-4, vehicle or Compound A was administered per os (PO) […] (QD) as described above in Table 33. […] Dosing was at a consistent time each dosing day throughout the study.
as §3, §4
BUN provides important information about how well kidneys are working. A BUN test measures the amount of urea nitrogen in the blood and indicates how much urea has been processed by the kidneys and is indicative of renal competency. Urea is a waste product that is excreted in urine.

anti-dsDNA antibodies = assay: SLE (lupus) model: anti-dsDNA antibodies in serum by ELISA; type: in vivo, MRL/MpJ-Faslpr mice; details: for Anti-dsDNA Antibodies in serum, mean: Cyclophosphamide 50 mg/kg IP once a week
Description: as §1, §2, §3, §4
Anti-dsDNA antibody test measures the amount of antibody to double-stranded deoxyribonucleic acid (anti-dsDNA) that may be present in the blood. Anti-dsDNA antibodies are highly specific markers of SLE as these antibodies are not thought to be present in other kinds of autoimmune disorder.

IL-17A = IL-17A (Homo sapiens, UniProt Q16552); details: from FDA pharmacology review / corporate presentation; read-out: reported IC50 for IL-17A; cited from earlier work
[7] = Cyclophosphamide 50 mg/kg IP once a week

IL-17A, sequence (Q16552 24-155): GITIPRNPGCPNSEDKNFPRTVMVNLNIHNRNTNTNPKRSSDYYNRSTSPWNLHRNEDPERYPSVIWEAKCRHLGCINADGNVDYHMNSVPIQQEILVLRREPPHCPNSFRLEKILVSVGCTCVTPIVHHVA

For `CCS(=O)(=O)Nc1ccc(Oc2ccc(F)cc2F)c(-c2cn(C)c(=O)c3[nH]ccc23)c1` [ABBV-075], the BD2 (BET BD2; comparator BET inhibitors) is listed as 13 nM, the “Selectivity (BD1/BD2)” value (BET BD2; nanoBRET assay, comparator) is listed as 2.6x and the “Effect on goblet cells in gastrointestinal villi” value [1] is listed as “depleted goblet cells”.
For `O=P1(N(CCCl)CCCl)NCCCO1` (stereo not drawn) [Cyclophosphamide, cyclophosphamide, reference compound], the Mean Body Weight ([2]; Week 11) was 35.0 g, the Mean Body Weight ([2]; Week 12) was 36.2 g and the Mean Body Weight ([2]; Week 13) was 36.1 g. The Mean Body Weight ([2]; Week 14) was 37.2 g, the Mean Body Weight ([2]; Week 15) was 37.5 g and the Mean Body Weight ([2]; Week 16) was 38.6 g. The Mean Body Weight ([2]; Week 17) was 38.6 g, the Mean Body Weight ([2]; Week 18) was 38.9 g and the Mean Body Weight ([2]; Week 19) was 39.1 g. The “Relative end body weight (% of Week 11) ± SEM” value ([2]; Cyclophosphamide group) was 111.8% ± 1.7%, the Mean proteinuria score (lupus [3]; Week 10) was 2.00 and the Mean proteinuria score (lupus [3]; Week 11) was 2.05±. The Mean proteinuria score (lupus [3]; Week 12) was 2.10, the Mean proteinuria score (lupus [3]; Week 13) was 2.35 and the Mean proteinuria score (lupus [3]; Week 14) was 2.35. For the same molecule, the Mean proteinuria score (lupus [3]; Week 15) was 2.25, the Mean proteinuria score (lupus [3]; Week 16) was 1.85 and the Mean proteinuria score (lupus [3]; Week 17) was 2.05. The Mean proteinuria score (lupus [3]; Week 18) was 2.10, the Mean proteinuria score (lupus [3]; Week 19) was 2.25 and the “End proteinuria score ± SEM” value (lupus [3]; end of study (Week 19)) was 2.25 ± 0.13. For the same molecule, the “Total Glomerular Lesion (mean score)” value (lupus [4]; [7]) was 0.3, the “Total Glomerular Lesion (table title: Mean Total Kidney Lesion Scores)” value (lupus [4]; [7]) was 0.6 and the “Total Tubular and Interstitial Lesion (mean score)” value (lupus [4]; [7]) was 0.3. For the same molecule, the “Mean total glomerular lesion score” value (lupus [4]; cyclophosphamide group) was 0.3, the “Mean total kidney lesion score” value (lupus [4]; cyclophosphamide group) was “about 0.6” and the “Mean total tubular and interstitial lesion score” value (lupus [4]; cyclophosphamide group) was “about 0.3”. For the same molecule, the “Mean Kidney Weight” value (lupus [5]; [7]) was 191 mg, the “Mean Spleen Weight” value (lupus [5]; [7]) was 116 mg and the “Kidney weights relative to controls” value (lupus [5]; Compound A (10 mg/kg) and cyclophosphamide groups) was “slightly decreased kidney weights”. The “Spleen weights relative to vehicle controls” value (lupus [5]; Compound A (all tested doses) and cyclophosphamide) was “decreased spleen weights”, the BUN serum concentration (lupus [6]) was 11.0 mg/dL and the “Anti-dsDNA Antibodies in serum, mean” value (anti-dsDNA antibodies; Week 16) was 28 units/mL. For the same molecule, the “Anti-dsDNA Antibodies in serum, mean” value (anti-dsDNA antibodies; Week 19) was 23 units/mL and the “Anti-dsDNA antibodies in serum versus Vehicle group” value (anti-dsDNA antibodies; Week 16 and Week 19, Compound A (10 mg/mL) and Cyclophosphamide) was “effective in reducing levels to well below that seen with the Vehicle administered group”.
For DC-806 [reference compound], the IC50 (IL-17A) is given as 5.7 nM.

Source: patent US20260217701A1, “SELECTIVE BET INHIBITORS AND USES THEREOF” (Tay Therapeutics Limited, priority 2022, published 2026)
